From patent publication US6444850B1, “Fungicidial compounds having a fluorovinyloxphyenyl moiety and process for the preparation thereof” (priority 1997, dated 2002) come the findings set out here.

One experiment has as its system Botrytis cinerae. In words: Fungicidal activity against cucumber gray mold rot (CGM) disease. The experiment is classed as in vivo. The following applies: 50 ppm, control value.
Experiment [1] deals with Pyricularia oryzae Carvara KA301. Type of experiment: in vivo. The note with it: for C. V. (%) Fungicidal Activities against RCB at 10 ppm / C. V. (%) Fungicidal Activities against RCB at 10 ppm (TABLE 6): sprayed on Nakdong rice plant, control value from lesion area; for C. V. (%) RCB: 50 ppm, control value, rice blast.
A further experiment deals with Rhizoctonia solani AG-1. In words: Fungicidal activity against rice sheath blight (RSB) disease. The following applies: 50 ppm, control value.
The test system of another experiment is Phytophthora infestans. Type of experiment: in vivo. The following applies: 50 ppm; control value, tomato late blight.
In a further experiment the test system is Puccinia recondita. In words: Fungicidal activity against wheat leaf rust (WLR) disease. Type of experiment: in vivo. The following applies: for C. V. (%), Fungicidal Activities against WLB at 10 ppm: Table 8 (Test Example 5); for C. V. (%) WLR: 50 ppm, control value, wheat leaf rust.
The next experiment has as its system Erysiphae graminis. In words: Fungicidal activity against barley powdery mildew (BPM) disease. Type of experiment: in vivo. The following applies: for C. V. (%), Fungicidal activities against TLB at 10 ppm: Table 9 (Test Example 6); for C. V. (%) BPM: 50 ppm, control value, barley powdery mildew.

Procedure for Rhizoctonia solani AG-1: 50 ml of the resulting solution was sprayed on leaves of a host plant. The plant was kept at room temperature for 24 hours to let the solvent evaporate, and then, a pathogenic fungus was inoculated thereonto. The plant was held in a humidity chamber for 24 hours, transferred to an plant growth room kept at 20 to 27° C. and a relative humidity of 60 to 80% and kept to induce disease. Subsequently, the lesion area(L.A.) attacked by the pathogenic fungus was measured according to a method of Cho(Cho, K. Y., Search Report by Korea Research Institute of Chemical Technology (1989))”. This procedure was repeated twice for each test. 10% Acetone solution containing 250 ppm of Tween-20 was used as a control.
The fungicidal activity of the compound of the present invention is repressed by a control value (C.V.) calculated as; [formula]
Rhizoctonia solani AG-1 was cultured on a PDA medium(potato 200 g, dextrose 20 g, agar 20 g and distilled water 1 l) for 3 days and the agar disc (diameter 0.6 cm) was inoculated and cultured on sterilized wheat bran medium in a 1 l bottle at 26 to 28° C. for 7 days. A mycelial mass was ground using a homogenizer, inoculated uniformly on soil of a pot wherein a Nakdong rice plant having 2 or 3 leaves and an height of 5 cm grew, and kept in humidity polyvinyl chamber for 5 days to induce RSB. L.A. on a leaf sheath was measured to calculate an C.V.

Take `CNC(=O)C(=NOC)c1ccccc1COc1cccc(OC(F)=C(c2ccc(F)cc2)C(F)(F)F)c1` [Compound 99]: the “C. V. (%) CGM” value with Botrytis cinerae is given as 21%. For the same compound, in experiment [1], the “C. V. (%) Fungicidal Activities against RCB at 10 ppm” value came out at 95%, the “C. V. (%) Fungicidal Activities against RCB at 10 ppm (TABLE 6)” value came to 95% and the “C. V. (%) RCB” value was 80%. In addition, the “C. V. (%) RSB” value in the experiment on Rhizoctonia solani AG-1 amounted to 90%. Also, in the experiment with Phytophthora infestans, the “C. V. (%) TLB” value was determined as 48%. In the experiment on Puccinia recondita, the “C. V. (%), Fungicidal Activities against WLB at 10 ppm” value is 100% and the “C. V. (%) WLR” value is 100%. Also, in the experiment with Erysiphae graminis, the “C. V. (%), Fungicidal activities against TLB at 10 ppm” value amounted to 100% and the “C. V. (%) BPM” value came to 100%.
Take `CNC(=O)C(=COC)c1ccccc1COc1cccc(OC(F)=C(c2ccc(Br)cc2)C(F)(F)F)c1` [Compound 101]: the “C. V. (%) CGM” value in the experiment on Botrytis cinerae was found to be 21%. In addition, the “C. V. (%) RCB” value in experiment [1] was 0%. For the same compound, the “C. V. (%) RSB” value in the experiment with Rhizoctonia solani AG-1 is listed as 10%. Also, in the experiment on Phytophthora infestans, the “C. V. (%) TLB” value was 3%. Further, the “C. V. (%) WLR” value with Puccinia recondita came to 73%. In addition, the “C. V. (%) BPM” value in the experiment on Erysiphae graminis is reported as 0%.
Take `COC=C(C(=O)OC)c1ccccc1COc1cccc(OC(F)=C(c2cc(Cl)cc(Cl)c2)C(F)(F)F)c1` [Compound 102]: the “C. V. (%) CGM” value in the experiment with Botrytis cinerae turned out to be 0%. In addition, the “C. V. (%) RCB” value in experiment [1] is reported as 0%. Also, the “C. V. (%) RSB” value with Rhizoctonia solani AG-1 is 45%. Moreover, in the experiment on Phytophthora infestans, the “C. V. (%) TLB” value worked out at 3%. The “C. V. (%) WLR” value in the experiment on Puccinia recondita is listed as 96%. Also, in the experiment with Erysiphae graminis, the “C. V. (%), Fungicidal activities against TLB at 10 ppm” value worked out at 98% and the “C. V. (%) BPM” value was determined as 100%.
Take `CON=C(C(=O)OC)c1ccccc1COc1cccc(OC(F)=C(c2cc(Cl)cc(Cl)c2)C(F)(F)F)c1` [Compound 103]: the “C. V. (%) CGM” value in the experiment with Botrytis cinerae is 0%. Moreover, the “C. V. (%) RCB” value in experiment [1] worked out at 0%. For the same compound, the “C. V. (%) RSB” value in the experiment with Rhizoctonia solani AG-1 was 60%. Moreover, the “C. V. (%) TLB” value in the experiment with Phytophthora infestans is on record as 3%. Also, in the experiment with Puccinia recondita, the “C. V. (%), Fungicidal Activities against WLB at 10 ppm” value was 96% and the “C. V. (%) WLR” value turned out to be 100%. Further, in the experiment on Erysiphae graminis, the “C. V. (%), Fungicidal activities against TLB at 10 ppm” value was found to be 100% and the “C. V. (%) BPM” value came to 100%.
With `CNC(=O)C(=NOC)c1ccccc1COc1cccc(OC(F)=C(c2cc(Cl)cc(Cl)c2)C(F)(F)F)c1` [Compound 104], in the experiment with Botrytis cinerae, the “C. V. (%) CGM” value turned out to be 0%. Also, in experiment [1], the “C. V. (%) Fungicidal Activities against RCB at 10 ppm” value came to 98%, the “C. V. (%) Fungicidal Activities against RCB at 10 ppm (TABLE 6)” value is reported as 98% and the “C. V. (%) RCB” value is reported as 100%. Besides, in the experiment with Rhizoctonia solani AG-1, the “C. V. (%) RSB” value amounted to 50%. Moreover, the “C. V. (%) TLB” value in the experiment on Phytophthora infestans amounted to 0%. In addition, in the experiment with Puccinia recondita, the “C. V. (%), Fungicidal Activities against WLB at 10 ppm” value turned out to be 100% and the “C. V. (%) WLR” value turned out to be 100%. Besides, in the experiment on Erysiphae graminis, the “C. V. (%), Fungicidal activities against TLB at 10 ppm” value amounted to 100% and the “C. V. (%) BPM” value amounted to 100%.
For the compound `COC=C(C(=O)OC)c1ccccc1COc1cccc(OC(F)=C(c2cccs2)C(F)(F)F)c1` [Compound 105], the “C. V. (%) CGM” value in the experiment on Botrytis cinerae came to 0%. Moreover, the “C. V. (%) RCB” value in experiment [1] worked out at 96%. Moreover, in the experiment with Rhizoctonia solani AG-1, the “C. V. (%) RSB” value is 78%. In addition, the “C. V. (%) TLB” value in the experiment with Phytophthora infestans is 0%. Further, in the experiment on Puccinia recondita, the “C. V. (%), Fungicidal Activities against WLB at 10 ppm” value stood at 96% and the “C. V. (%) WLR” value amounted to 100%. In addition, in the experiment with Erysiphae graminis, the “C. V. (%) BPM” value stood at 70%.
In the case of `CCCCCCC(=C(F)Oc1cccc(OCc2ccccc2C(=COC)C(=O)OC)c1)C(F)(F)F` [Compound 106], the “C. V. (%) CGM” value in the experiment with Botrytis cinerae worked out at 0%. Also, in experiment [1], the “C. V. (%) RCB” value amounted to 0%. The “C. V. (%) RSB” value with Rhizoctonia solani AG-1 came to 45%. In the experiment with Phytophthora infestans, the “C. V. (%) TLB” value is 0%. Besides, in the experiment on Puccinia recondita, the “C. V. (%), Fungicidal Activities against WLB at 10 ppm” value is given as 91% and the “C. V. (%) WLR” value worked out at 98%. Besides, in the experiment on Erysiphae graminis, the “C. V. (%), Fungicidal activities against TLB at 10 ppm” value is recorded as 100% and the “C. V. (%) BPM” value came to 100%.
Regarding `CCCCCCC(=C(F)Oc1cccc(OCc2ccccc2C(=COC)C(=O)NC)c1)C(F)(F)F` [Compound 107], the “C. V. (%) CGM” value in the experiment with Botrytis cinerae turned out to be 21%. For the same compound, the “C. V. (%) RCB” value in experiment [1] was 0%. For the same compound, the “C. V. (%) RSB” value with Rhizoctonia solani AG-1 turned out to be 10%. For the same compound, the “C. V. (%) TLB” value with Phytophthora infestans is on record as 3%. Moreover, the “C. V. (%) WLR” value in the experiment with Puccinia recondita is 80%. Besides, the “C. V. (%) BPM” value with Erysiphae graminis is given as 41%.
